Measured values taken from US11370803B2, “Heteroaryl plasma kallikrein inhibitors” (Takeda Pharmaceutical Company Limited, priority 2019, dated 2022).

Target: human activated kallikrein enzyme (Homo sapiens (Human), UniProt P03952)
Experiment: Inhibition of human activated plasma kallikrein, fluorogenic peptide substrate assay (500 pM enzyme format)
Format: biochemical
Settings: 500 pM activated kallikrein, 300 uM Pro-Phe-Arg-7-amido-4-methylcoumarin substrate, 30 min preincubation, 10 min reaction at RT; read-out: Primary Dose Response Assay: Average EC50
Method: Inhibitory Activity of Exemplary Compounds against Plasma Kallikrein. Example compounds were evaluated for inhibition of the human activated kallikrein enzyme in two formats of an assay employing a fluorogenic peptide substrate. In one assay format, the concentrations of reagents were as follows: 20 mM Tris pH 7.5, 1 mM EDTA, 150 mM sodium chloride, 0.1% PEG-400, 0.1% Triton X-100, 500 pM activated kallikrein enzyme, 300 uM Pro-Phe-Arg-7-amido-4-methylcoumarin substrate. Prior to reaction initiation with substrate, enzyme and inhibitors were preincubated for 30 min at RT. After initiation with substrate, reactions were incubated for 10 min at RT and fluorescence emission at 460 nm from 380 nm excitation measured with a microplate reader. In another assay format, the concentrations of reagents were as follows: 20 mM Tris pH 7.5, 1 mM EDTA, 150 mM sodium chloride, 0.1% PEG-400, 0.1% Triton X-100, 5 pM activated kallikrein enzyme, 300 uM Pro-Phe-Arg-7-amido-4-methylcoumarin substrate. Prior to reaction initiation with substrate, enzyme and inhibitors were preincubated for 30 min at RT. After initiation with substrate, reactions were incubated for 18 h at RT and fluorescence emission at 460 nm from 380 nm excitation measured with a microplate reader.
Table 1 provides the results of the assay in the format with 500 pM activated kallikrein assay. For the compounds listed in Table 1, the EC50 values are reported according to the following ranges: A≤50 nM; 50 nM<B≤200 nM; 200 nM<C≤1000 nM; 1000 nM<D.

Sequence of human activated kallikrein enzyme (P03952 391-638): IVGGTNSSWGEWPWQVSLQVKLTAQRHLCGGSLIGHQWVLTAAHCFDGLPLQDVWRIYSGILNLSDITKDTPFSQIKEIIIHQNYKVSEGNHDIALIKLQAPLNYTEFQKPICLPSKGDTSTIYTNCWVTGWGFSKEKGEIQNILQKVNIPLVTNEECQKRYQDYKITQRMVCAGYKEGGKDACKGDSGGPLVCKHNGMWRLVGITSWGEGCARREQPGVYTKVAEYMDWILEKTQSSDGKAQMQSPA
Sequence of human activated kallikrein enzyme (P03952 20-390 partner): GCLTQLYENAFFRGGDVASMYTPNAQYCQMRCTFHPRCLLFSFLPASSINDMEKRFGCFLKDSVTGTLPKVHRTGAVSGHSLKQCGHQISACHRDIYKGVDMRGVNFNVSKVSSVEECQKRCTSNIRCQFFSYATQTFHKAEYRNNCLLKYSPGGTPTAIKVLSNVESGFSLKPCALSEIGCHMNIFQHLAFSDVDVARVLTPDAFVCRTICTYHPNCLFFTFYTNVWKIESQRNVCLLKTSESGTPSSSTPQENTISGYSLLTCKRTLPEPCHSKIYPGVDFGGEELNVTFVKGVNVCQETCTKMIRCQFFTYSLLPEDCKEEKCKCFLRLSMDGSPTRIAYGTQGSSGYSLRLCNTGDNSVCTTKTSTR

| Compound | EC50 [nM] |
| --- | --- |
| O=C(Cc1ncn2ccc(Cl)cc12)NCc1cn(Cc2cn3cc(C4CC4)ccc3n2)nn1 [Compound I-1, 2-(7-chloroimidazo[1,5-a]pyridin-1-yl)-N-((1-((6-cyclopropylimidazo[1,2-a]pyridin-2-yl)methyl)-1H-1,2,3-triazol-4-yl)methyl)acetamide] | ≤ 50 |
| Fc1c(Cl)ccn2cnc(C(NCc3cn(Cc4cn5cc(C6CC6)ccc5n4)nn3)C(F)(F)F)c12 (stereo not drawn) [Compound I-2, 1-(7-chloro-8-fluoroimidazo[1,5-a]pyridin-1-yl)-N-((1-((6-cyclopropylimidazo[1,2-a]pyridin-2-yl)methyl)-1H-1,2,3-triazol-4-yl)methyl)-2,2,2-trifluoroethan-1-amine] | > 1000 |
| O=C(NCc1cn(Cc2cn3cc(C4CC4)ccc3n2)nn1)c1ncn2ccc(Cl)c(F)c12 [Compound I-3, 7-chloro-N-((1-((6-cyclopropylimidazo[1,2-a]pyridin-2-yl)methyl)-1H-1,2,3-triazol-4-yl)methyl)-8-fluoroimidazo[1,5-a]pyridine-1-carboxamide] | 50 to 200 |
| O=S(=O)(NCc1ncn2ccc(Cl)c(F)c12)c1cnn(Cc2cn3cc(C4CC4)ccc3n2)c1 [Compound I-4, N-((7-chloro-8-fluoroimidazo[1,5-a]pyridin-1-yl)methyl)-1-((6-cyclopropylimidazo[1,2-a]pyridin-2-yl)methyl)-1H-pyrazole-4-sulfonamide] | 200 to 1000 |
| O=S(=O)(NCc1ncn2ccc(Cl)c(F)c12)c1cn(Cc2cn3cc(C4CC4)ccc3n2)nn1 [Compound I-5, N-((7-chloro-8-fluoroimidazo[1,5-a]pyridin-1-yl)methyl)-1-((6-cyclopropylimidazo[1,2-a]pyridin-2-yl)methyl)-1H-1,2,3-triazole-4-sulfonamide] | 200 to 1000 |
| O=S(=O)(NCc1cn(Cc2cn3cc(C4CC4)ccc3n2)nn1)c1ncn2ccc(Cl)c(F)c12 [Compound I-6, 7-chloro-N-((1-((6-cyclopropylimidazo[1,2-a]pyridin-2-yl)methyl)-1H-1,2,3-triazol-4-yl)methyl)-8-fluoroimidazo[1,5-a]pyridine-1-sulfonamide] | ≤ 50 |
| CC(NS(=O)(=O)c1ncn2ccc(Cl)c(F)c12)c1cn(Cc2cn3cc(C4CC4)ccc3n2)nn1 (stereo not drawn) [Compound I-7, 7-chloro-N-(1-(1-((6-cyclopropylimidazo[1,2-a]pyridin-2-yl)methyl)-1H-1,2,3-triazol-4-yl)ethyl)-8-fluoroimidazo[1,5-a]pyridine-1-sulfonamide] | ≤ 50 |
| O=C(NCc1ncn2ccc(Cl)c(F)c12)c1cn2c(n1)CCC2c1cn2cc(C3CC3)ccc2n1 (stereo not drawn) [Compound I-8, N-((7-chloro-8-fluoroimidazo[1,5-a]pyridin-1-yl)methyl)-5-(6-cyclopropylimidazo[1,2-a]pyridin-2-yl)-6,7-dihydro-5H-pyrrolo[1,2-a]imidazole-2-carboxamide] | ≤ 50 |
| O=C(NCc1ncn2ccc(Cl)c(F)c12)c1cnc2n1C(c1cn3cc(C4CC4)ccc3n1)CC2 (stereo not drawn) [Compound I-9, N-((7-chloro-8-fluoroimidazo[1,5-a]pyridin-1-yl)methyl)-5-(6-cyclopropylimidazo[1,2-a]pyridin-2-yl)-6,7-dihydro-5H-pyrrolo[1,2-a]imidazole-3-carboxamide] | 200 to 1000 |
| N#Cc1ccn2cnc(CNC(=O)c3cnn(Cc4cn5cc(C6CC6)ccc5n4)c3)c2c1 [Compound I-10, N-((7-cyanoimidazo[1,5-a]pyridin-1-yl)methyl)-1-((6-cyclopropylimidazo[1,2-a]pyridin-2-yl)methyl)-1H-pyrazole-4-carboxamide] | ≤ 50 |
| Fc1c(Cl)ccn2cnc(CNCc3cn(Cc4cn5cc(C6CC6)ccc5n4)nn3)c12 [Compound I-11, 1-(7-chloro-8-fluoroimidazo[1,5-a]pyridin-1-yl)-N-((1-((6-cyclopropylimidazo[1,2-a]pyridin-2-yl)methyl)-1H-1,2,3-triazol-4-yl)methyl)methanamine] | ≤ 50 |
| CC(NCc1ncn2ccc(Cl)c(F)c12)c1cn(Cc2cn3cc(C4CC4)ccc3n2)nn1 (stereo not drawn) [Compound I-12, N-((7-chloro-8-fluoroimidazo[1,5-a]pyridin-1-yl)methyl)-1-(1-((6-cyclopropylimidazo[1,2-a]pyridin-2-yl)methyl)-1H-1,2,3-triazol-4-yl)ethan-1-amine] | 50 to 200 |
| CC(NC(=O)Cc1ncn2ccc(Cl)cc12)c1cn(Cc2cn3cc(C4CC4)ccc3n2)nn1 (stereo not drawn) [Compound I-13, 2-(7-chloroimidazo[1,5-a]pyridin-1-yl)-N-(1-(1-((6-cyclopropylimidazo[1,2-a]pyridin-2-yl)methyl)-1H-1,2,3-triazol-4-yl)ethyl)acetamide] | ≤ 50 |
| COC(=O)c1cc(C2CC2)cn2cc(Cn3cc(CNCc4ncn5ccc(Cl)c(F)c45)nn3)nc12 [Compound I-14, Methyl 2-((4-((((7-chloro-8-fluoroimidazo[1,5-a]pyridin-1-yl)methyl)amino)methyl)-1H-1,2,3-triazol-1-yl)methyl)-6-cyclopropylimidazo[1,2-a]pyridine-8-carboxylate] | ≤ 50 |
| O=C(O)c1cc(C2CC2)cn2cc(Cn3cc(CNCc4ncn5ccc(Cl)c(F)c45)nn3)nc12 [Compound I-15, 2-((4-((((7-chloro-8-fluoroimidazo[1,5-a]pyridin-1-yl)methyl)amino)methyl)-1H-1,2,3-triazol-1-yl)methyl)-6-cyclopropylimidazo[1,2-a]pyridine-8-carboxylic Acid] | 200 to 1000 |
| Fc1c(Cl)ccn2cnc(CNC(c3cnn(Cc4cn5cc(C6CC6)ccc5n4)c3)C(F)(F)F)c12 (stereo not drawn) [Compound I-16, N-((7-chloro-8-fluoroimidazo[1,5-a]pyridin-1-yl)methyl)-1-(1-((6-cyclopropylimidazo[1,2-a]pyridin-2-yl)methyl)-1H-pyrazol-4-yl)-2,2,2-trifluoroethan-1-amine] | ≤ 50 |
| CCOC(=O)CCc1cc(C2CC2)cn2cc(Cn3cc(CNCc4ncn5ccc(Cl)c(F)c45)nn3)nc12 [Compound I-17a, Ethyl 3-(2-((4-((((7-chloro-8-fluoroimidazo[1,5-a]pyridin-1-yl)methyl)amino)methyl)-1H-1,2,3-triazol-1-yl)methyl)-6-cyclopropylimidazo[1,2-a]pyridin-8-yl)propanoate] | ≤ 50 |
| O=C(O)CCc1cc(C2CC2)cn2cc(Cn3cc(CNCc4ncn5ccc(Cl)c(F)c45)nn3)nc12 [Compound I-17b, 3-(2-((4-((((7-chloro-8-fluoroimidazo[1,5-a]pyridin-1-yl)methyl)amino)methyl)-1H-1,2,3-triazol-1-yl)methyl)-6-cyclopropylimidazo[1,2-a]pyridin-8-yl)propanoic acid] | ≤ 50 |
| Fc1c(Cl)ccn2cnc(CNCc3cn(Cc4cn5cc(C6CC6)cc(-n6cnnc6)c5n4)nn3)c12 [Compound I-18, 1-(7-chloro-8-fluoroimidazo[1,5-a]pyridin-1-yl)-N-((1-((6-cyclopropyl-8-(4H-1,2,4-triazol-4-yl)imidazo[1,2-a]pyridin-2-yl)methyl)-1H-1,2,3-triazol-4-yl)methyl)methanamine] | ≤ 50 |
| O=C(Cc1ncn2ccc(Cl)cc12)NC(c1cnn(Cc2cn3cc(C4CC4)ccc3n2)c1)C(F)(F)F (stereo not drawn) [Compound I-19, 2-(7-chloroimidazo[1,5-a]pyridin-1-yl)-N-(1-(1-((6-cyclopropylimidazo[1,2-a]pyridin-2-yl)methyl)-1H-pyrazol-4-yl)-2,2,2-trifluoroethyl)acetamide] | 50 to 200 |
| CN1CCN(c2cc(C3CC3)cn3cc(Cn4cc(C(=O)NCc5ncn6ccc(Cl)c(F)c56)nn4)nc23)CC1 [Compound I-20, N-((7-chloro-8-fluoroimidazo[1,5-a]pyridin-1-yl)methyl)-1-((6-cyclopropyl-8-(4-methylpiperazin-1-yl)imidazo[1,2-a]pyridin-2-yl)methyl)-1H-1,2,3-triazole-4-carboxamide] | ≤ 50 |
